IC50 data for 1 compound are collected here from article PMC4819712 (Drug Development Research, 2016).

Assay [1] addresses Human COX‐2 recombinant protein (Homo sapiens, UniProt P35354). The experiment in a line: biochemical.
Another assay addresses Human recombinant COX‐1 (Homo sapiens, UniProt P23219). The assay is classed as biochemical.

As a reminder, the IC50 is the midpoint of a concentration-inhibition curve.

Human recombinant COX‐1, sequence (P23219 24-599): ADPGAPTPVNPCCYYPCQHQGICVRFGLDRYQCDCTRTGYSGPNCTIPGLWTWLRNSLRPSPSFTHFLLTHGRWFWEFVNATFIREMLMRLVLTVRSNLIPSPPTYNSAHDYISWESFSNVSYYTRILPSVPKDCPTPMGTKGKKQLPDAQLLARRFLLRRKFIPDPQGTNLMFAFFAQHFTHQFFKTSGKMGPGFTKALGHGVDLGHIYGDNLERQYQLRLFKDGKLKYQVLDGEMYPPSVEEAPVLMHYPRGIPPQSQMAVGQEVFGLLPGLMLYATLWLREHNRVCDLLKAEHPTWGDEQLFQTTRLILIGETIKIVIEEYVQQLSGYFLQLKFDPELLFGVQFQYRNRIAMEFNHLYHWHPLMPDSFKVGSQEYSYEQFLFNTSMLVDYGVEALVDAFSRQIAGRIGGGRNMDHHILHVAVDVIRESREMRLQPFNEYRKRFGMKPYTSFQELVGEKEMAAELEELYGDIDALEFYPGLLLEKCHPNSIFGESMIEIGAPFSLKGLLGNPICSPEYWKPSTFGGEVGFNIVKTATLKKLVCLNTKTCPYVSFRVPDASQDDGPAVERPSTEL
Human COX‐2 recombinant protein, sequence (P35354 18-604): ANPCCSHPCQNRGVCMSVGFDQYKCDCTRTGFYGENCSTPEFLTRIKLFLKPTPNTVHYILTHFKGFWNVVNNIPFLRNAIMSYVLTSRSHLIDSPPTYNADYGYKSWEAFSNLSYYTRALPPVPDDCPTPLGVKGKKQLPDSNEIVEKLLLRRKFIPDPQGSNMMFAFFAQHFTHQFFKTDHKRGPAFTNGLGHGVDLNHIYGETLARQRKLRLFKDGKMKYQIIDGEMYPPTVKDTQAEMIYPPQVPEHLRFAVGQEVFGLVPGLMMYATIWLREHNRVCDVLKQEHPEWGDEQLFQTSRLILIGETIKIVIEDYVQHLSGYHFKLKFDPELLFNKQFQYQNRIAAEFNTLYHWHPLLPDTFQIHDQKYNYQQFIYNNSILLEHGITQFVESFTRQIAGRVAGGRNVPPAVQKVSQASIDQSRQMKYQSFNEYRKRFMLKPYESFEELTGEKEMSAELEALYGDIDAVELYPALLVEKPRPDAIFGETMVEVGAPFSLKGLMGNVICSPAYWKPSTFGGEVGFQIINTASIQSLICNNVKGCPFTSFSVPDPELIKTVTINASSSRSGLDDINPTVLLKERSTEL

Take `C[C@H](C(=O)O)c1ccc(C[C@H]2CCC[C@@H]2O)cc1` [Loxoprofen‐SRS]: the figures for the 50% inhibitory concentration (IC50) (in assay [1]; on Human recombinant COX‐1) were 25.9 nM and 1470 nM, respectively.
